Source: ChEMBL document CHEMBL1151757, “Synthesis, radiosynthesis, and biological evaluation of fluorine-18-labeled 2beta-carbo(fluoroalkoxy)-3beta-(3'-((Z)-2-haloethenyl)phenyl)nortropanes: candidate radioligands for in vivo imaging of the serotonin transporter with positron emission tomography” (J Med Chem, 2008)

Assays:
Midbrain [1] = assay: Drug uptake in anesthetized cynomolgus monkey brain midbrain after 175 mins postinjection; format: ADME, organism-based, Macaca fascicularis; conditions: in vivo
Putamen [2] = assay: Drug uptake in anesthetized cynomolgus monkey brain putamen after 145 mins postinjection; format: ADME, organism-based, Macaca fascicularis; conditions: in vivo
Thalamus [3] = assay: Drug uptake in anesthetized cynomolgus monkey brain thalamus after 18.5 mins postinjection; format: ADME, organism-based, Macaca fascicularis; parameters: unit not given here; conditions: in vivo
Thalamus [4] = assay: Drug uptake in anesthetized cynomolgus monkey brain thalamus after 235 mins postinjection; format: ADME, organism-based, Macaca fascicularis; parameters: unit not given here; conditions: in vivo
Thalamus [5] = assay: Drug uptake in anesthetized cynomolgus monkey brain thalamus after 2.5 mins postinjection; format: ADME, organism-based, Macaca fascicularis; parameters: unit not given here; conditions: in vivo
Caudate [6] = assay: Drug uptake in anesthetized cynomolgus monkey brain caudate after 12.5 mins postinjection; format: ADME, organism-based, Macaca fascicularis, Caudate nucleus; conditions: in vivo
[7] = Drug uptake in anesthetized cynomolgus monkey brain cerebellum after 215 mins postinjection; format: ADME, organism-based, Macaca fascicularis; conditions: in vivo
Midbrain [8] = assay: Drug uptake in anesthetized cynomolgus monkey brain midbrain after 235 mins postinjection; format: ADME, organism-based, Macaca fascicularis; conditions: in vivo
[9] = Ratio of drug uptake in midbrain to cerebellum in anesthetized cynomolgus monkey after 22.5 mins postinjection; format: ADME, organism-based, Macaca fascicularis; conditions: in vivo, 0.375 h
Putamen [10] = assay: Drug uptake in anesthetized cynomolgus monkey brain putamen after 45 mins postinjection; format: ADME, organism-based, Macaca fascicularis; parameters: unit not given here; conditions: in vivo, 0.75 h
Thalamus [11] = assay: Drug uptake in anesthetized cynomolgus monkey brain thalamus after 145 mins postinjection; format: ADME, organism-based, Macaca fascicularis; parameters: unit not given here; conditions: in vivo
[12] = Drug uptake in anesthetized cynomolgus monkey brain occipital lobe after 4.5 mins postinjection; format: ADME, organism-based, Macaca fascicularis; conditions: in vivo, 0.075 h
[13] = Ratio of drug uptake in caudate to cerebellum in anesthetized cynomolgus monkey after 18.5 mins postinjection; format: ADME, organism-based, Macaca fascicularis; conditions: in vivo
[14] = Ratio of drug uptake in frontal lobe to cerebellum in anesthetized cynomolgus monkey after 135 mins postinjection; format: ADME, organism-based, Macaca fascicularis; conditions: in vivo, 2.25 h
Thalamus [15] = assay: Drug uptake in anesthetized cynomolgus monkey brain thalamus after 35 mins postinjection; format: ADME, organism-based, Macaca fascicularis; parameters: unit not given here; conditions: in vivo
Putamen [16] = assay: Drug uptake in anesthetized cynomolgus monkey brain putamen after 165 mins postinjection; format: ADME, organism-based, Macaca fascicularis; conditions: in vivo, 2.75 h
Medulla [17] = assay: Drug uptake in anesthetized cynomolgus monkey brain medulla after 165 mins postinjection; format: ADME, organism-based, Macaca fascicularis; conditions: in vivo, 2.75 h
Putamen [18] = assay: Drug uptake in anesthetized cynomolgus monkey brain putamen after 1.5 mins postinjection; format: ADME, organism-based, Macaca fascicularis; conditions: in vivo, 0.025 h
Medulla [19] = assay: Drug uptake in anesthetized cynomolgus monkey brain medulla after 125 mins postinjection; format: ADME, organism-based, Macaca fascicularis; conditions: in vivo
[20] = Drug uptake in anesthetized cynomolgus monkey brain occipital lobe after 1.5 mins postinjection; format: ADME, organism-based, Macaca fascicularis; conditions: in vivo, 0.025 h
[21] = Drug uptake in anesthetized cynomolgus monkey brain frontal lobe after 9.5 mins postinjection; format: ADME, organism-based, Macaca fascicularis; conditions: in vivo
Midbrain [22] = assay: Drug uptake in anesthetized cynomolgus monkey brain midbrain after 3.5 mins postinjection; format: ADME, organism-based, Macaca fascicularis; parameters: unit not given here; conditions: in vivo
[23] = Ratio of drug uptake in pons to cerebellum in anesthetized cynomolgus monkey after 145 mins postinjection; format: ADME, organism-based, Macaca fascicularis; conditions: in vivo
[24] = Ratio of drug uptake in pons to cerebellum in anesthetized cynomolgus monkey after 105 mins postinjection; format: ADME, organism-based, Macaca fascicularis; conditions: in vivo, 1.75 h
Medulla [25] = assay: Drug uptake in anesthetized cynomolgus monkey brain medulla after 235 mins postinjection; format: ADME, organism-based, Macaca fascicularis; conditions: in vivo
Putamen [26] = assay: Drug uptake in anesthetized cynomolgus monkey brain putamen after 65 mins postinjection; format: ADME, organism-based, Macaca fascicularis; parameters: unit not given here; conditions: in vivo
Midbrain [27] = assay: Drug uptake in anesthetized cynomolgus monkey brain midbrain after 135 mins postinjection; format: ADME, organism-based, Macaca fascicularis; conditions: in vivo, 2.25 h
Thalamus [28] = assay: Drug uptake in anesthetized cynomolgus monkey brain thalamus after 155 mins postinjection; format: ADME, organism-based, Macaca fascicularis; parameters: unit not given here; conditions: in vivo
[29] = Ratio of drug uptake in occipital lobe to cerebellum in anesthetized cynomolgus monkey after 18.5 mins postinjection; format: ADME, organism-based, Macaca fascicularis; conditions: in vivo
[30] = Ratio of drug uptake in putamen to cerebellum in anesthetized cynomolgus monkey after 3.5 mins postinjection; format: ADME, organism-based, Macaca fascicularis; conditions: in vivo
[31] = Drug uptake in anesthetized cynomolgus monkey brain occipital lobe after 85 mins postinjection; format: ADME, organism-based, Macaca fascicularis; conditions: in vivo
Medulla [32] = assay: Drug uptake in anesthetized cynomolgus monkey brain medulla after 27.5 mins postinjection; format: ADME, organism-based, Macaca fascicularis; conditions: in vivo
[33] = Ratio of drug uptake in occipital lobe to cerebellum in anesthetized cynomolgus monkey after 0.5 mins postinjection; format: ADME, organism-based, Macaca fascicularis; conditions: in vivo
[34] = Ratio of drug uptake in midbrain to cerebellum in anesthetized cynomolgus monkey after 125 mins postinjection; format: ADME, organism-based, Macaca fascicularis; conditions: in vivo
Pons [35] = assay: Drug uptake in anesthetized cynomolgus monkey brain pons after 235 mins postinjection; format: ADME, organism-based, Macaca fascicularis; conditions: in vivo
Midbrain [36] = assay: Drug uptake in anesthetized cynomolgus monkey brain midbrain after 22.5 mins postinjection; format: ADME, organism-based, Macaca fascicularis; parameters: unit not given here; conditions: in vivo, 0.375 h
[37] = Drug uptake in anesthetized cynomolgus monkey brain cerebellum after 115 mins postinjection; format: ADME, organism-based, Macaca fascicularis; conditions: in vivo
[38] = Drug uptake in anesthetized cynomolgus monkey brain cerebellum after 6.5 mins postinjection; format: ADME, organism-based, Macaca fascicularis; conditions: in vivo
Putamen [39] = assay: Drug uptake in anesthetized cynomolgus monkey brain putamen after 215 mins postinjection; format: ADME, organism-based, Macaca fascicularis; conditions: in vivo
Caudate [40] = assay: Drug uptake in anesthetized cynomolgus monkey brain caudate after 165 mins postinjection; format: ADME, organism-based, Macaca fascicularis, Caudate nucleus; conditions: in vivo, 2.75 h
Medulla [41] = assay: Drug uptake in anesthetized cynomolgus monkey brain medulla after 18.5 mins postinjection; format: ADME, organism-based, Macaca fascicularis; conditions: in vivo
[42] = Drug uptake in anesthetized cynomolgus monkey brain occipital lobe after 115 mins postinjection; format: ADME, organism-based, Macaca fascicularis; conditions: in vivo
[43] = Drug uptake in anesthetized cynomolgus monkey brain frontal lobe after 6.5 mins postinjection; format: ADME, organism-based, Macaca fascicularis; conditions: in vivo
[44] = Ratio of drug uptake in pons to cerebellum in anesthetized cynomolgus monkey after 95 mins postinjection; format: ADME, organism-based, Macaca fascicularis; conditions: in vivo
[45] = Drug uptake in anesthetized cynomolgus monkey brain frontal lobe after 115 mins postinjection; format: ADME, organism-based, Macaca fascicularis; conditions: in vivo
Pons [46] = assay: Drug uptake in anesthetized cynomolgus monkey brain pons after 85 mins postinjection; format: ADME, organism-based, Macaca fascicularis; conditions: in vivo
[47] = Ratio of drug uptake in medulla to cerebellum in anesthetized cynomolgus monkey after 85 mins postinjection; format: ADME, organism-based, Macaca fascicularis; conditions: in vivo
[48] = Drug uptake in anesthetized cynomolgus monkey brain frontal lobe after 95 mins postinjection; format: ADME, organism-based, Macaca fascicularis; conditions: in vivo
[49] = Ratio of drug uptake in midbrain to cerebellum in anesthetized cynomolgus monkey after 27.5 mins postinjection; format: ADME, organism-based, Macaca fascicularis; conditions: in vivo
Midbrain [50] = assay: Drug uptake in anesthetized cynomolgus monkey brain midbrain after 105 mins postinjection; format: ADME, organism-based, Macaca fascicularis; parameters: unit not given here; conditions: in vivo, 1.75 h
Thalamus [51] = assay: Drug uptake in anesthetized cynomolgus monkey brain thalamus after 15.5 mins postinjection; format: ADME, organism-based, Macaca fascicularis; parameters: unit not given here; conditions: in vivo
[52] = Drug uptake in anesthetized cynomolgus monkey brain occipital lobe after 6.5 mins postinjection; format: ADME, organism-based, Macaca fascicularis; parameters: unit not given here; conditions: in vivo
Midbrain [53] = assay: Drug uptake in anesthetized cynomolgus monkey brain midbrain after 165 mins postinjection; format: ADME, organism-based, Macaca fascicularis; conditions: in vivo, 2.75 h
[54] = Drug uptake in anesthetized cynomolgus monkey brain frontal lobe after 65 mins postinjection; format: ADME, organism-based, Macaca fascicularis; conditions: in vivo
Thalamus [55] = assay: Drug uptake in anesthetized cynomolgus monkey brain thalamus after 3.5 mins postinjection; format: ADME, organism-based, Macaca fascicularis; parameters: unit not given here; conditions: in vivo
[56] = Ratio of drug uptake in thalamus to cerebellum in anesthetized cynomolgus monkey after 95 mins postinjection; format: ADME, organism-based, Macaca fascicularis; conditions: in vivo
[57] = Ratio of drug uptake in putamen to cerebellum in anesthetized cynomolgus monkey after 235 mins postinjection; format: ADME, organism-based, Macaca fascicularis; conditions: in vivo
[58] = Ratio of drug uptake in pons to cerebellum in anesthetized cynomolgus monkey after 225 mins postinjection; format: ADME, organism-based, Macaca fascicularis; conditions: in vivo, 3.75 h

O=C(OCCC[18F])C1C2CCC(CC1c1cccc(/C=C\Br)c1)N2 (stereo not drawn)
Drug uptake (Midbrain [1]): 4.91
Drug uptake (Putamen [2]): 4.58
Drug uptake (Thalamus [3]): 4.77
Drug uptake (Thalamus [4]): 3.48
Drug uptake (Thalamus [5]): 1.12
Drug uptake (Caudate [6]): 4.23
Drug uptake [7]: 2.1
Drug uptake (Midbrain [8]): 4.33
Ratio [9]: 1
Drug uptake (Putamen [10]): 6.05
Drug uptake (Thalamus [11]): 4.62
Drug uptake [12]: 2.44
Ratio [13]: 0.7
Ratio [14]: 1
Drug uptake (Thalamus [15]): 5.26
Drug uptake (Putamen [16]): 4.31
Drug uptake (Medulla [17]): 4.42
Drug uptake (Putamen [18]): 0.3
Drug uptake (Medulla [19]): 4.99
Drug uptake [20]: 0.3
Drug uptake [21]: 3.19
Drug uptake (Midbrain [22]): 2.59
Ratio [23]: 1.6
Ratio [24]: 1.3
Drug uptake (Medulla [25]): 3.34
Drug uptake (Putamen [26]): 5.78
Drug uptake (Midbrain [27]): 5.36
Drug uptake (Thalamus [28]): 4.27
Ratio [29]: 0.7
Ratio [30]: 0.8
Drug uptake [31]: 4.19
Drug uptake (Medulla [32]): 6.12
Ratio [33]: 1
Ratio [34]: 1.8
Drug uptake (Pons [35]): 3.26
Drug uptake (Midbrain [36]): 5.88
Drug uptake [37]: 3.29
Drug uptake [38]: 5.03
Drug uptake (Putamen [39]): 3.51
Drug uptake (Caudate [40]): 4.01
Drug uptake (Medulla [41]): 5.87
Drug uptake [42]: 3.72
Drug uptake [43]: 2.95
Ratio [44]: 1.2
Drug uptake [45]: 3.2
Drug uptake (Pons [46]): 4.59
Ratio [47]: 1.4
Drug uptake [48]: 3.31
Ratio [49]: 1.1
Drug uptake (Midbrain [50]): 5.59
Drug uptake (Thalamus [51]): 4.64
Drug uptake [52]: 3.31
Drug uptake (Midbrain [53]): 5.06
Drug uptake [54]: 3.69
Drug uptake (Thalamus [55]): 1.89
Ratio [56]: 1.4
Ratio [57]: 1.7
Ratio [58]: 1.6
